# Columns and labels:
# [1] = system: L1210 cell line (JCRB), mouse lymphocytic leukemia; assay: in vivo anti-tumor activity in L1210 syngeneic tumors; details: Compound A1 54 mg/kg/day in diet (0.037%), 4H2 i.p. 20 mg/kg day 0 then 10 mg/kg every 6 days, n=8
# Protocol: (§1) This example evaluated in vivo anti-tumor activity of a BTK inhibitor (Compound A1) in combination with an anti-PD-1 antibody (4H2) in syngeneic tumors. Similar protocols as described above were used with L1210 cell line (JCRB), mouse lymphocytic leukemia.
# (§2) L1210-bearing DBA-2 mice were subcutaneously injected (5×10^5 cells/animal). Mice were randomized into four groups (n=8 per group) for treatment with vehicle (CRF-1), Compound A1, 4H2 (10 mg/kg every 6 days), or Compound A1 and 4H2. Mice were fed diets containing of Compound A1. 4H2 was administered intraperitoneally at 20 mg/kg on day 0 followed by 10 mg/kg every 6 days. The average dose of Compound A1 was 54 mg/kg/day (CRF-1 at 0.037%).
# [2] = system: A20 cell line (ATCC), mouse B-cell lymphoma; assay: in vivo anti-tumor activity in A20 syngeneic tumors; details: first study, Compound A1 46 mg/kg/day in diet (0.037%), 4H2 i.p. 20 mg/kg day 0 then 10 mg/kg every 6 days, n=9
# Protocol: This example evaluated in vivo anti-tumor activity of a BTK inhibitor Compound A1 in combination with an anti-PD-1 antibody (4H2), (Kitayama Labes Co., Ltd) in syngeneic tumors.
# A20 cell line (ATCC), mouse B-cell lymphoma, were maintained in lymphocyte growth medium (LGM): RPMI-1640 supplemented with 10% FBS, 1% penicillin-streptomycin. Fresh 1% (vol) Monothioglycerol was also added to the culture. The cell suspension of 2×10^6 to 4×10^6 cells per dish was cultured at 37° C., 5% CO2. The cells were suspended in PBS (5×10^7 cells/mL).
# A20-bearing BALB/c mice were subcutaneously injected (5×10^6 cells per animal). Day 6 after cell injection (day 0), mice having the tumor volume of about were 200 mm^3 were randomized into four groups (n=9 per group) for treatment with vehicle (CRF-1), Compound A1, 4H2, or Compound A1 and 4H2. Mice were fed diets containing of Compound A1. 4H2 was administered intraperitoneally at 20 mg/kg on day 0 followed by 10 mg/kg every 6 days; the average dose of Compound A1 was 46 mg/kg/day (CRF-1 at 0.037%) in the first and second studies or 15 mg/kg/day (CRF-1 at 0.012%) in the second study. During the studies, tumor volume (long axis of tumor×(short axis of tumor)^2×0.5), tumor growth inhibition rate (TGI, as compared to tumors of the vehicle control group), temporal changes in tumor volume, body weight, or food intake were determined. The studies were terminated when tumors reached a maximum of 3,000 mm^3. […]
# [3] = body weight of A20-bearing BALB/c mice; format: in vivo; details: first study, Compound A1 46 mg/kg/day in diet (0.037%), 4H2 i.p. 20 mg/kg day 0 then 10 mg/kg every 6 days, n=9
# Protocol: A20-bearing BALB/c mice were subcutaneously injected (5×10^6 cells per animal). Day 6 after cell injection (day 0), mice having the tumor volume of about were 200 mm^3 were randomized into four groups (n=9 per group) for treatment with vehicle (CRF-1), Compound A1, 4H2, or Compound A1 and 4H2. Mice were fed diets containing of Compound A1. 4H2 was administered intraperitoneally at 20 mg/kg on day 0 followed by 10 mg/kg every 6 days; the average dose of Compound A1 was 46 mg/kg/day (CRF-1 at 0.037%) in the first and second studies or 15 mg/kg/day (CRF-1 at 0.012%) in the second study. During the studies, tumor volume (long axis of tumor×(short axis of tumor)^2×0.5), tumor growth inhibition rate (TGI, as compared to tumors of the vehicle control group), temporal changes in tumor volume, body weight, or food intake were determined. The studies were terminated when tumors reached a maximum of 3,000 mm^3.
# In the second study, the effects of Compound A1 at 15 mg/kg/day (CRF-1 at 0.012%) and 46 mg/kg/day (CRF-1 at 0.037%) were evaluated. Similar protocols as described above were used. The study (n=12 per group) was terminated at day 17.
# [4] = body weight of L1210-bearing DBA-2 mice; format: in vivo; details: Compound A1 54 mg/kg/day in diet (0.037%), 4H2 i.p. 20 mg/kg day 0 then 10 mg/kg every 6 days, n=8
# Protocol: as §1, §2
# [5] = system: B-cell lymphoma A20; details: previously reported, Sagiv-Barfi et al. PNAS 2015; cited from earlier work
smiles,measurement,setting,value
"CC#CC(=O)N1CC[C@@H](n2c(=O)n(-c3ccc(Oc4ccccc4)cc3)c3c(N)ncnc32)C1 [Compound A1, (R)-6-amino-9-(1-(but-2-ynoyl)pyrrolidin-3-yl)-7-(4-phenoxyphenyl)-7H-purin-8(9H)-one]",average tumor volume (±standard error),[1]; day 0,0 (±0) mm^3
same,average tumor volume (±standard error),[1]; day 4,71 (±16) mm^3
same,tumor growth inhibition rate (TGI),[1]; day 4,8%
same,average tumor volume (±standard error),[1]; day 7,247 (±34) mm^3
same,tumor growth inhibition rate (TGI),[1]; day 7,30%
same,average tumor volume (±standard error),[1]; day 10,874 (±108) mm^3
same,tumor growth inhibition rate (TGI),[1]; day 10,7%
same,average tumor volume (±standard error),[1]; day 12,1851 (±226) mm^3
same,tumor growth inhibition rate (TGI),[1]; day 12,−0.7%
same,average tumor volume (±standard error),[1]; day 14,3279 (±321) mm^3
same,tumor growth inhibition rate (TGI),[1]; day 14,−0.2%
same,average tumor volume (±standard error),[2]; day 0,168 (±11) mm^3
same,"tumor growth inhibition rate (TGI, as compared to tumors of the vehicle control group)",[2]; day 0,0.8%
same,average tumor volume (±standard error),[2]; day 2,248 (±18) mm^3
same,"tumor growth inhibition rate (TGI, as compared to tumors of the vehicle control group)",[2]; day 2,14%
same,average tumor volume (±standard error),[2]; day 6,331 (±32) mm^3
same,"tumor growth inhibition rate (TGI, as compared to tumors of the vehicle control group)",[2]; day 6,23%
same,average tumor volume (±standard error),[2]; day 9,632 (±61) mm^3
same,"tumor growth inhibition rate (TGI, as compared to tumors of the vehicle control group)",[2]; day 9,−12%
same,average tumor volume (±standard error),[2]; day 12,805 (±104) mm^3
same,"tumor growth inhibition rate (TGI, as compared to tumors of the vehicle control group)",[2]; day 12,9%
same,average tumor volume (±standard error),[2]; day 15,1408 (±157) mm^3
same,"tumor growth inhibition rate (TGI, as compared to tumors of the vehicle control group)",[2]; day 15,8%
same,average tumor volume (±standard error),[2]; day 19,2553 (±272) mm^3
same,"tumor growth inhibition rate (TGI, as compared to tumors of the vehicle control group)",[2]; day 19,10%
same,average body weight (±standard error),[3]; day 0,19 (±0.4) g
same,average body weight (±standard error),[3]; day 2,19 (±0.4) g
same,average body weight (±standard error),[3]; day 6,20 (±0.3) g
same,average body weight (±standard error),[3]; day 9,20 (±0.3) g
same,average body weight (±standard error),[3]; day 12,21 (±0.3) g
same,average body weight (±standard error),[3]; day 15,21 (±0.3) g
same,average body weight (±standard error),[3]; day 19,22 (±0.4) g
same,average body weight (±standard error),[4]; day 0,15 (±0.4) g
same,average body weight (±standard error),[4]; day 4,16 (±0.4) g
same,average body weight (±standard error),[4]; day 7,16 (±0.4) g
same,average body weight (±standard error),[4]; day 10,17 (±0.5) g
same,average body weight (±standard error),[4]; day 12,18 (±0.4) g
same,average body weight (±standard error),[4]; day 14,19 (±0.5) g
"C=CC(=O)N1CCC[C@@H](n2nc(-c3ccc(Oc4ccccc4)cc3)c3c(N)ncnc32)C1 [ibrutinib, 1-[(3R)-3-[4-Amino-3-(4-phenoxyphenyl)-1H-pyrazolo[3,4-d]pyrimidin-1-yl]piperidin-1-yl]prop-2-en-1-one]",sensitivity of B-cell lymphoma A20 to the Btk inhibitor,[5],would not be sensitive
